How the values were obtained:
[1] = target: T1, 5-HT1B receptors (Homo sapiens, UniProt P28222); assay: 5-HT1B receptor radioligand binding assay ([3H]-5-HT); conditions: CHO cells expressing 5-HT1B receptors; [3H]-5-HT 4 nM; 37° C., 45 minutes; read-out: pKi at 5-HT1B receptors (converted)
T1 construct: expressed in transfected cells; host or cells: CHO cells
Experimental: (§1) The affinities of the compounds of this invention for the 5HT1A, 5-HT1B and 5-HT1D receptors can be determined by the following radioligand binding assay. HEK 293 cells expressing 5-HT1A receptors (4×10^7/ml) are homogenised in Tris buffer and stored in 1 ml aliquots. CHO cells expressing 5-HT1B receptors (4×10^7 cells/ml) are homogenised in Tris buffer and stored in 1.5 ml aliquots. CHO cells expressing 5-HT1D receptors (0.563×10^8/ml) are homogenised in Tris buffer and stored in 1 ml aliquots. 0.4 ml of a cell suspension is incubated with [^3H]-5-HT (4 nM) for 5-HT1B/1D receptors and [^3H]-8-OH DPAT (1 nM) for 5-HT1A receptors in Tris Mg HCl buffer (pH 7.7) and test drug, at 37° C. for 45 minutes. Each test drug is tested at 10 concentrations (0.01 mM to 0.3 nM final concentration), with non-specific binding defined using 0.01 mM 5-HT. The total assay volume is 0.5 ml. Incubation is stopped by rapid filtration using a Packard Filtermate (filters pre-soaked in 0.3% polyethylenimine) and radioactivity measured by Topcount scintillation counting. pKi values are calculated from the IC50 generated by an iterative least squares curve fitting programme.
(§2) The affinities of the compounds of this invention were determined by methods described above.
(§3) 5-HT1A, 5-HT1B and 5-HT1D Receptor Binding

[2] = target: T2, 5-HT1A receptors (Homo sapiens, UniProt P08908); assay: 5-HT1A receptor radioligand binding assay ([3H]-8-OH DPAT); conditions: HEK 293 cells expressing 5-HT1A receptors; [3H]-8-OH DPAT 1 nM; 37° C., 45 minutes; read-out: pKi at 5-HT1A receptors (converted)
T2 construct: expressed in transfected cells; host or cells: HEK 293 cells
T2 sequence (P08908 1-422): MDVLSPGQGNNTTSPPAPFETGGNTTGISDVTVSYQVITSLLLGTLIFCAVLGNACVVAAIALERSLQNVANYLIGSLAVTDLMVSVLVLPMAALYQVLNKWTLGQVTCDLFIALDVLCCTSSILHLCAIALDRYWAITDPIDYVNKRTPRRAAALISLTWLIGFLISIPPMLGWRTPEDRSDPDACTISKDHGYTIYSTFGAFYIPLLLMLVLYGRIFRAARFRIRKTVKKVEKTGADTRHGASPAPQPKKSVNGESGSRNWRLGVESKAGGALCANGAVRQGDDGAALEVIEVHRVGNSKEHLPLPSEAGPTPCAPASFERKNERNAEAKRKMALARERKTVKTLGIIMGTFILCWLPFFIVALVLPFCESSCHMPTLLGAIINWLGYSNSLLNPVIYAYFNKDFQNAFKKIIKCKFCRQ
Experimental: as §1, §2, §3

[3] = target: T3, 5-HT1D receptors (Homo sapiens, UniProt P28221); assay: 5-HT1D receptor radioligand binding assay ([3H]-5-HT); conditions: CHO cells expressing 5-HT1D receptors; [3H]-5-HT 4 nM; 37° C., 45 minutes; read-out: pKi at 5-HT1D receptors (converted)
T3 construct: expressed in transfected cells; host or cells: CHO cells
Experimental: as §1, §2, §3

Measured: Ki

T1 sequence (P28222 whole entry): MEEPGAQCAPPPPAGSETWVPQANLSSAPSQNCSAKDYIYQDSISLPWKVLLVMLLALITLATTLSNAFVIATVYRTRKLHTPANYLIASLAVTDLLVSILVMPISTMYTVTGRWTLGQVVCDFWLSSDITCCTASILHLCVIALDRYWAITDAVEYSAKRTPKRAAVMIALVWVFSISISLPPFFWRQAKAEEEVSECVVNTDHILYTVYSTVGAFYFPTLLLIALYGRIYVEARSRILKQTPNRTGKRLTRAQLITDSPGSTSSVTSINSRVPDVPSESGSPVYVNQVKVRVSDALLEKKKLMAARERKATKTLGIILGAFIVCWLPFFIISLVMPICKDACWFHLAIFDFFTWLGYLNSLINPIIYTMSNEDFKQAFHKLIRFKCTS
T3 sequence (P28221 whole entry): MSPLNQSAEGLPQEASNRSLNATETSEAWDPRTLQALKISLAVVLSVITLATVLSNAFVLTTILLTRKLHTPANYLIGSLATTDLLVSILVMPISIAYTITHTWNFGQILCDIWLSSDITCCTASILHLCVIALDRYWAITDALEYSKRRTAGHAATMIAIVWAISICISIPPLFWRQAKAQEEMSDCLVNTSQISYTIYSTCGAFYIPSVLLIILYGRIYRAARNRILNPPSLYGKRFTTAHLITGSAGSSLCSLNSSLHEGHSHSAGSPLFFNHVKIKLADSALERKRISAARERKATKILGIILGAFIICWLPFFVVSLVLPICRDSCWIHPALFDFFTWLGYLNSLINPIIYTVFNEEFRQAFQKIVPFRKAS

CN1CCC(c2c[nH]c3ccc(NC(=O)Nc4ccc(-c5ccncc5)c(Cl)c4)cc23)CC1 [Example 8, N-[3-Chloro-4-(pyridin-4-yl)phenyl]-N′-[3-(1-methylpiperidin-4-yl)indol-5-yl]-3-urea]
< 10 nM: all assays above

CN1CC=C(c2csc3ccc(NC(=O)Nc4ccc(-c5ccncc5)c(Cl)c4)cc23)CC1 [Example 9, N-[3-Chloro-4-(pyridin-4-yl)phenyl]-N′-[3-(1-methyl-1,2,5,6-tetrahydropyridin-4-yl)benzo[b]thiophen-5-yl]-urea]
< 10 nM: all assays above

CN1CCC(c2c[nH]c3ccc(NC(=O)Nc4ccc(-c5ccncc5)cc4Cl)cc23)CC1 [Example 4, N-[2-Chloro-4-(pyridin-4-yl)phenyl]-N′-[3-(1-methylpiperidin-4-yl)indol-5-yl]-urea]
< 10 nM: all assays above

CN1CC=C(c2csc3ccc(NC(=O)Nc4ccc(-c5ccncc5)c5ccccc45)cc23)CC1 [Example 10, N-[3-(1-Methyl-1,2,5,6-tetrahydropyridin-4-yl)benzo[b]thiophen-5-yl]-N′-[4-(pyridin-4-yl)naphth-1-yl]-urea]
< 10 nM: all assays above

CN1CCC(c2csc3ccc(NC(=O)Nc4ccc(-c5ccncc5)c5ccccc45)cc23)CC1 [Example 12, N-[3-(1-Methylpiperidin-4-yl)benzo[b]thiophen-5-yl]-N′-[-4-(pyridin-4-yl)naphth-1-yl]-urea]
< 10 nM: all assays above

CN1CCC(c2c[nH]c3ccc(NC(=O)Nc4ccc(-c5ccncc5)c(Cl)c4Cl)cc23)CC1 [Example 3, N-[2,3-Dichloro-4-(pyridin-4-yl)phenyl]-N′-[3-(1-methylpiperidin-4-yl)indol-5-yl]-urea]
< 10 nM: all assays above

CN1CCC(c2c[nH]c3ccc(NC(=O)Nc4ccc(-c5ccncc5)c5ccccc45)cc23)CC1 [Example 1, N-[3-(1-Methylpiperdin-4-yl)indol-5-yl]-N′-[4-(pyridin-4-yl)naphth-1-yl]-urea]
< 10 nM: all assays above

Reference: US6391891B1, “Bicyclic compounds as ligands for 5-HT1 receptors” (SmithKline Beecham plc, priority 1997, dated 2002)
